The source of these data is patent US20220242812A1, “SWELL1-LRRC8 COMPLEX MODULATORS” (Washington University, priority 2019, published 2022).

Like-named read-outs stand apart in the source and are kept apart here.

For one data set, the system named is polygenic T2D KKAy mice. Nature of the data set: Metabolic phenotyping (fasting glucose, GTT, ITT) in polygenic T2D KKAy mice. The data set is classed as in vivo. Conditions: polygenic T2D KKAy model, 5 mg/kg i.p. 4 days. From the text:
All C57BL/6 mice involved in study were purchased from Charles River Labs. Both KK.Cg-Ay/J (KKN) and KK.Cg-Aa/J (KKAa) mice involved in study were gender and age-matched mice obtained from Jackson Labs (Stock No: 002468) and bred up for experiments. The mice were fed ad libitum with either regular chow (RC) or high-fat diet (Research Diets, Inc., 60 kcal % fat) with free access to water and housed in a light-, temperature- and humidity-controlled room. For high-fat diet (HFD) studies, only male mice were used and were started on HFD regimen at the age of 6-9 weeks. For all experiments involving KKN and KKAa mice, both males and females were used at approximately 50/50 ratio. In all experiments involving mice, investigators were kept blinded both during the experiments and subsequent analysis.
All compounds were dissolved in Kolliphor® EL (Sigma, #C5135).
(§1) Mice were fasted for 6 h prior to glucose tolerance tests (GTT). Baseline glucose levels at 0 min timepoint (fasting glucose, FG) were measured from blood sample collected from tail snipping using glucometer (Bayer Healthcare LLC). Either 1 g or 0.75 g D-Glucose/kg body weight were injected (i.p.) for lean or HFD mice, respectively and glucose levels were measured at 7, 15, 30, 60, 90 and 120 min timepoints after injection. For insulin tolerance tests (ITTs), the mice were fasted for 4 h. Similar to GTTs, the baseline blood glucose levels were measured at 0 min timepoint and 15, 30, 60, 90 and 120 min timepoints post-injection (i.p.) of insulin (HumulinR, 1 U/kg body weight for lean mice or 1.25 U/kg body weight for HFD mice). […] The collected plasma was then measured for insulin content by using Ultra-Sensitive Mouse Insulin ELISA Kit (Crystal Chem, #90080). All mice and treatment groups were assessed blindly while performing experiments.

In another data set the test system is insulin secretion. Nature of the data set: Glucose-stimulated insulin secretion in plasma of HFD mice. The data set is classed as in vivo. Particulars: 21 weeks HFD. The method, then:
as §1

The target of another data set is VRAC/ICl,SWELL (Homo sapiens, UniProt Q8IWT6). Particulars: selective VRAC/ICl,SWELL inhibitor; cited from earlier work.
The test system of data set [1] is delayed rectifier channels. Particulars: cited from earlier work.
The test system of a further data set is T2D KKAy mice. As to the kind of experiment: Hyperinsulinemic euglycemic glucose clamp in T2D KKAy mice. The data set is classed as in vivo. The method, then: Sterile silicone catheters (Dow-Corning) were placed into the jugular vein of mice under isoflurane anesthesia. Placed catheter was flushed with 200 U/ml heparin in saline and the free end of the catheter was directed subcutaneously via a blunted 14-gauge sterile needle and connected to a small tubing device that exited through the back of the animal. […] Hyperinsulinemic euglycemic clamps were performed on day 8 post-surgery on unrestrained, conscious mice as described elsewhere (Ayala et al., 2011; Kim et al., 2000), with some modifications. Mice were fasted for 6 h at which time insulin and glucose infusion were initiated (time 0). At 80 min prior to time 0 basal sampling was conducted, where whole-body glucose flux was traced by infusion of 0.05 μCi/min D-[3-3H]-glucose (Perkin Elmer), after a priming 5 μCi bolus for 1 minute. After the basal period, starting at time 0 D-[3-3H]-glucose was continuously infused at the 0.2 μCi/min rate and the infusion of insulin (Humulin, Eli Lilly) was initiated with a bolus of 80 mU/kg/min then followed by continuous infusion of insulin at the dose of 8 mU/kg/min throughout the assay. Fifty percent dextrose (Hospira) was infused at a variable rates (GIR) starting at the same time as the initiation of insulin infusion to maintain euglycemia at the targeted level of 150 mg/dl ([…]). Blood glucose (BG) measurements were taken every ten minutes via tail vein sampling using Contour glucometer (Bayer). After mouse reached stable BG and GIR (typically, after 75 minutes since starting the insulin infusion; for some mice, a longer time was required to achieve steady state) a single bolus of 12 μCi of [1-14C]-2-deoxy-D-glucose (Perkin Elmer) in 96 μl of saline was administered. Plasma samples (collected from centrifuged blood) for determination of tracers enrichment, glucose level and insulin concentration were obtained at times −80, −20, −10, 0, and every 10 min starting at 80 min post-insulin (5 min after [1-14C]-2-deoxy-D-glucose bolus was administered) until the conclusion of the assay at 140 min. Tissue samples were then collected from mice under isofluorane anesthesia from organs of interest (e.g., liver, heart, kidney, white adipose tissue, brown adipose tissue, gastrocnemius, soleus etc.) for determination of 1-14C1-2-deoxy-D-glucose tracer uptake. Plasma and tissue samples were processed as described previously (Ayala et al., 2011). Briefly, plasma samples were deproteinized with Ba(OH)2 and ZnSO4 and dried to eliminate tritiated water. The glucose turnover rate (mg/kg-min) was calculated as the rate of tracer infusion (dpm/min) divided by the corrected plasma glucose specific activity (dpm/mg) per kg body weight of the mouse. Fluctuations from steady state were accounted for by use of Steele's model. Plasma glucose was measured using Analox GMD9 system (Analox Technologies).
Tissue samples (˜30 mg each) were homogenized in 750 μl of 0.5% perchloric acid, neutralized with 10 M KOH and centrifuged. The supernatant was then used for first measuring the abundance of total [1-14C] signal (derived from both 1-14C-2-deoxy-D-glucose, 1-14C-2-deoxy-D-glucose 6 phosphate) and, following a precipitation step with 0.3 N […] and 0.3 N ZnSO4, for the measuring of non-phosphorylated 1-14C-2-deoxy-D-glucose. Glycogen was isolated by ethanol precipitation from 30% KOH tissue lysates, as described (Shiota, 2012). Insulin level in plasma at T0 and T140 were measured using a Stellux ELISA rodent insulin kit (Alpco).

Another data set has as its target SWELL1 protein (Mus musculus, UniProt Q80WG5). Conditions: for SWELL1 protein expression: applied for 96 hours (10 μM).
For the next data set, the target named is hERG (Homo sapiens, UniProt Q12809). Particulars: cited from earlier work.
Another data set has as its target T1, R103E mutant SWELL1 (Homo sapiens, UniProt Q8IWT6, R103E).
T1 construct: expressed in transfected cells; host or cells: HEK-293
Nature of the data set: ICl,SWELL inhibition in R103E mutant SWELL1 overexpressing HEK-293 cells. Conditions: R103E expressing HEK cells, 10 and 7 μM. The data set is classed as cell-based.

`CCCCC1(C2CCCC2)Cc2cc(OCCCC(=O)O)c(Cl)c(Cl)c2C1=O` (stereo not shown) [SN-401, 4-((2-butyl-6,7-dichloro-2-cyclopentyl-1-oxo-2,3-dihydro-1H-inden-5-yl)oxy)butanoic acid]: the “Fasting blood glucose (FG)” value in the data set with polygenic T2D KKAy mice is listed as “normalized”. Further, in the data set with polygenic T2D KKAy mice, the “Glucose tolerance (GTT)” value is “normalized”. Moreover, the “Insulin-tolerance (ITT)” value in the data set on polygenic T2D KKAy mice is reported as “markedly improved”. In addition, in the data set with insulin secretion, the “Glucose-stimulated insulin secretion (GSIS), serum insulin measurements” value is given as “significantly improved”. Further, the IC50 on VRAC/ICl,SWELL is around 5 µM. In addition, in data set [1], the “Effect on delayed rectifier channels” value was “no effect”. Also, the “Glucose-infusion rate (GIR) to maintain euglycemia” value with T2D KKAy mice (T2D KKAy mice, 5 mg/kg i.p. 4 days, vs vehicle) is “higher”. Moreover, in the data set on T2D KKAy mice (T2D KKAy mice, Basal), the “Reduction of hepatic glucose production (Ra) at baseline” value is 40%. Moreover, the “Suppression of hepatic glucose production (Ra) during glucose/insulin infusion” value in the data set with T2D KKAy mice (T2D KKAy mice, Clamp) amounted to 75%. The “Glucose incorporation into glycogen” value with T2D KKAy mice (adipose), with T2D KKAy mice (liver) and with T2D KKAy mice (skeletal muscle) was “markedly increased” throughout. The “Insulin-stimulated 2-DG uptake” value is recorded as “not” with T2D KKAy mice (brown fat); “enhanced” with T2D KKAy mice (gonadal white adipose tissue (gWAT)); “enhanced” in the data set with T2D KKAy mice (inguinal white adipose tissue (iWAT)); “enhanced” in the data set with T2D KKAy mice (myocardium); “not” in the data set with T2D KKAy mice (skeletal muscle). Moreover, at SWELL1 protein, the EC50 was below 1 µM. Besides, the SWELL1 protein expression on SWELL1 protein (3T3-F442A adipocytes) was 1.5 fold control expression; on SWELL1 protein (3T3-F442A preadipocytes), 3 fold control expression. Further, on hERG, the “Effect on hERG” value is on record as “no effect”.
For `CCCCC1(C2CCCC2)Cc2cc(OCCCCCC(=O)O)c(Cl)c(Cl)c2C1=O` (stereo not shown) [SN-406, 6-((2-butyl-6,7-dichloro-2-cyclopentyl-1-oxo-2,3-dihydro-1H-inden-5-yl)oxy)hexanoic acid], the “ICl,SWELL inhibition in R103E mutant vs WT” value at R103E mutant SWELL1 is “reduced”.
